Five compounds from US20260200944A1, “NOVEL IRAK4 INHIBITOR AND COMPOUND FOR INHIBITING AND DEGRADING IRAK4 PROTEIN, AND PREPARATION METHOD THEREFOR AND USE THEREOF” (DOVETREE MEDICINES UNUS, INC., priority 2022, published 2026) can be followed below.

For this assay, the target named is T1, IRAK4 kinase protein (Homo sapiens, UniProt Q9NWZ3).
T1 sequence (Q9NWZ3 1-460): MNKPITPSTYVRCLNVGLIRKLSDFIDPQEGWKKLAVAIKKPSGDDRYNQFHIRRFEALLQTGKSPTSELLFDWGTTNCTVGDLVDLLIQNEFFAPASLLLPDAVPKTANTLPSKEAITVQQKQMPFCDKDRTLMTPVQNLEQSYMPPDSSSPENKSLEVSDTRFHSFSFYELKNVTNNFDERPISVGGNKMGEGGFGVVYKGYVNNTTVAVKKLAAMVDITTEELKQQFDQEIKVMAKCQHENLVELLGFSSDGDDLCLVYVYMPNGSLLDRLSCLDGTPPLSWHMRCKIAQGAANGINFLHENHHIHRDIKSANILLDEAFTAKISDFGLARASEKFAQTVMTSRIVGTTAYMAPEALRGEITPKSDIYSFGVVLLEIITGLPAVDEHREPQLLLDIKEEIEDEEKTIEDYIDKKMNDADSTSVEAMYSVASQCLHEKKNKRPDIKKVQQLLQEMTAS
The assay can be described thus: IRAK4 kinase inhibition assay (Cisbio HTRF KinEASE-STK S1 kit). In kind it is biochemical. The note with it: IRAK4 10 nM, ATP 200 μM, substrate 1 μM, 37° C. for 2 h, read-out: IRAK4 inhibitory activity IC50. The procedure: In this assay, the Cisbio HTRF KinEASE-STK SI kit (62S1PEB) was used. The assay/detection buffer, STK Substrate 1-biotin, Streptavidin-XL665, and STKAntibody-Crypatete were all contained in the kit.
After the compound/DMSO was added to a 384-well plate (PerkinElmer 6008280) using Echo 665, 5 μL of 2-fold reaction concentration of IRAK4 kinase protein (final concentration: 10 nM) dissolved with an assay buffer [1 volume of 5× kinase buffer+20 mM magnesium chloride (Sigma) solution+1 mM DTT (Alfa Aesar) solution+4 volumes of deionized water] was added. The shallow well plate was sealed, shaken, centrifuged at 1000 rpm for 1 min, and then incubated at room temperature for 5 min. Then, 5 μL of 2-fold reaction concentration of a 1:1 mixture of STK Substrate 1-biotin (final concentration: 1 μM) and ATP (Sigma A1852) (final concentration: 200 μM) formulated with the assay buffer was added. The shallow well plate was sealed, shaken, centrifuged at 1000 rpm for 1 min, and then incubated at 37° C. for 2 h, followed by the addition of 10 μL of a 1:1 mixture of Streptavidin-XL665 (final concentration: 62.5 nM) and STK-antibody-cryptate dissolved with a detection buffer. The shallow well plate was sealed, shaken, centrifuged at 1000 rpm for 1 min, and then incubated at room temperature for 1 h, and then the value at the wavelength of 620 nm/665 nm was read using a microplate reader. The data were analyzed using Prism 9.3 software, and the IC50 value of IRAK4 kinase inhibition was fitted using a four parameter Logistic equation.
(TR-FRET usually uses a lanthanide donor and a delayed reading to cut background.)

The term IC50 denotes the concentration needed to halve the response being measured. Take `FC(F)c1nn(C2CCCCC2)c2cnc(-n3ccc4ccc(N5CCOCC5)nc43)cc12` [Compound C1]: the IC50 was 5 to 10 µM.
Consider `N#Cc1cnc2c(-c3cc4c(C(F)F)nn(C5CCCCC5)c4cn3)cnn2c1` [Compound C3i], for which the IC50 is 1 to 5 µM.
With `NC(=O)c1cnn2c(-c3cc4c(C(F)F)nn(C5CCCCC5)c4cn3)ccc2c1` [Compound C4ii], the IC50 is below 1 µM.
Next, `N#Cc1cnc2c(ccn2-c2cc3c(C(F)F)nn(C4CCCCC4)c3cn2)c1` [Compound C5i]: above 10 µM; `NC(=O)c1cnc2c(ccn2-c2cc3c(C(F)F)nn(C4CCCCC4)c3cn2)c1` [Compound C5ii]: 1 to 5 µM.
